Values after ≈ are worked out from the molar mass of the structure shown. Where two headings read alike, the source gives them in different places.
Key:
[1] = test system: HEK293T cells; test: CCK-8 assay for cytotoxicity; type: cell-based, human; conditions: 48 h
Description: (§1) HepG2 cells (6 × 10^3) and HEK293T cells (4 × 10^3) were seeded into 96-well plates in 90 μL of DMEM medium containing 10% FBS per well. […] After overnight incubation, the test compound stock solution was diluted with DMEM medium containing 10% FBS to every target concentration, and 10 μL of each was added to each well. Three parallel experiments were set up for each compound. After incubation for 48 h, 10 μL of cell counting kit-8 (CCK-8) reagent was added to each well in sequence according to the manufacturer’s instructions. […] This experiment was independently repeated three times. The data were processed by GraphPad Prism.

[2] = CCK-8 assay for cytotoxicity; type: cell-based, human; conditions: human, HEK293T cells, HEK293T cell viability
Description: as §1

[3] = test system: S. pyogenes; test: MIC, broth microdilution; type: cell-based, Streptococcus pyogenes
Summary of the method: (§2)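 Minimum inhibitory concentrations were measured by broth microdilution following CLSI guidelines. Plates were incubated at 37 °C for 16–20 h before results were read and recorded, and each determination was repeated at least three times.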

[4] = test system: S. aureus; test: MIC, broth microdilution; type: cell-based, Staphylococcus aureus
Summary of the method: as §2

[5] = test system: S. pneumoniae; test: MIC, broth microdilution; type: cell-based, Streptococcus pneumoniae
Summary of the method: as §2

[6] = test system: WT S. aureus ribosomes; test: PURE in vitro translation inhibition assay; type: biochemical, Staphylococcus aureus; conditions: mean ± SD
Description: (§3) To validate the in vitro activity of our compounds, we employed an in vitro reconstituted E. coli Protein synthesis Using a Recombinant Elements (PURE) translation system, substituting E. coli ribosomes with the purified S. aureus ribosomes.
(§4) 5 μL of PURE reaction mix that translates a gene encoding the Nanoluc luciferase was set up in the presence or absence of tested compounds. Protein synthesis was initiated by incubating reactions at 37 °C for 60 min and stopped by placing on ice for 5 min. Luciferase activity was quantified using the Nano-Glo luciferase assay system and read on a GloMax 20/20 luminometer (Promega, USA). For each compound, the in vitro translation inhibition assay was performed in three biological triplicates over a range of concentrations from 0.001 μM to 1000 μM. A compound-free control was used to normalize luminescence measurements. The calculated luminescence percentages were plotted against compound concentrations on a semilog scale using GraphPad Prism.

[7] = test system: 15B196 S. aureus ribosomes (A2058-methylated); test: PURE in vitro translation inhibition assay; type: biochemical, Staphylococcus aureus; conditions: mean ± SD
Description: as §3, §4

[8] = test system: E. coli S30 extract protein synthesis; test: In vitro E. coli transcription/translation assay; type: biochemical; conditions: cell-free transcription/translation, materials from E. coli
Source text: The in vitro transcription/translation assay for E. coli utilized materials from the E. coli S30 extract system for circular DNA (L1020, Promega, USA). This kit contains all the necessary components for efficient transcription and translation of a user-provided DNA template. To test the inhibition of protein synthesis, the assay uses plasmid pBESTluc, which contains the firefly luciferase gene, as the DNA template. The intensity of luminescence resulting from luciferase expression corresponds to the efficiency of protein synthesis. The luminescence intensity was quantified in the presence or absence of the tested compounds. […] This experiment was repeated twice independently.

[9] = test system: M. catarrhalis; test: MIC, broth microdilution; type: cell-based, Moraxella catarrhalis; conditions: Moraxella catarrhalis; M. catarrhalis 13L332, Ery-S; read-out: MIC
Description: MICs were determined by the microdilution method according to the Clinical and Laboratory Standards Institute guidelines. Briefly, the stock solution of compounds and the reference antibiotics were diluted 2-fold in sterile 96-well plates with cation-adjusted Mueller-Hinton broth, and mixed with CAMHB-containing bacteria to give a final inoculum of 5 × 10^5 CFU/mL for broth microdilution experiments. […] Finally, the 96-well plates were incubated at 37 °C for 16–20 h to observe and record the results. The lowest concentration at which no bacterial growth could be observed visually was identified as the MICs of the compounds. The assay for MICs was replicated at least three times.

[10] = Staphylococcus aureus, MRSA, MRSA (13)
[11] = Staphylococcus aureus, i-MLSB S. aureus (10)

In the case of `CC[C@H]1OC(=O)[C@H](C)[C@@H](OC(=O)NCCCCCCC#Cc2ccc3c(=O)c(C(=O)O)cn(C)c3c2)[C@H](C)[C@@H](O[C@@H]2O[C@H](C)C[C@H](N(C)C)[C@H]2O)[C@](C)(OC)C[C@@H](C)C(=O)[C@H](C)[C@H]2NC(=O)O[C@@]21C` [MCX-219], the CC50 ([1]; HEK293T cell viability) is reported as 26000 nM, the “cytotoxicity at 5 μM” value ([1]; HEK293T, 5 μM) is reported as “significantly reduced cytotoxicity compared to TcmX” and the CC50 at 48 h [2] is reported as 25700 ± 4080 nM. The MIC ([3]; S. pyogenes 01-968, Clinical, i-ermB) was no more than 0.002 µg/mL, the MIC ([3]; S. pyogenes 12-207, Clinical, mef) was 0.016 µg/mL (≈ 0.0165 µM) and the MIC ([3]; S. pyogenes 21C303, Clinical, c-ermB) was 0.5 µg/mL (≈ 0.517 µM). It also gave an MIC ([3]; S. pyogenes 21D184, Clinical, c-ermB) of 0.5 µg/mL (≈ 0.517 µM), an MIC ([3]; S. pyogenes 21D199, Clinical, c-ermB) of 1 µg/mL (≈ 1.03 µM) and an MIC ([3]; S. pyogenes 21D200, Clinical, c-ermB) of 0.25 µg/mL (≈ 0.258 µM). It also gave an MIC ([3]; S. pyogenes 21K003, Clinical, mef) of 0.06 µg/mL (≈ 0.062 µM), an MIC ([3]; S. pyogenes 21M063, Clinical, c-ermB) of 0.25 µg/mL (≈ 0.258 µM) and an MIC ([3]; S. pyogenes 21W186, Clinical, c-ermTR) of 4 µg/mL (≈ 4.14 µM). It also gave an MIC ([3]; Streptococcus pyogenes, S. pyogenes 01-968, i-ermTR (Table S5), read-out: MIC) of no more than 0.008 µg/mL, an MIC ([3]; Streptococcus pyogenes, S. pyogenes 12-206, c-ermB (Table S5), read-out: MIC) of 0.12 µg/mL (≈ 0.124 µM) and an MIC ([3]; Streptococcus pyogenes, S. pyogenes 12-206, c-ermTR, read-out: MIC) of 0.06 µg/mL (≈ 0.062 µM). For the same compound, the MIC ([4]; S. aureus 15B196, Clinical, MRSA, c-ermB) was 1 µg/mL (≈ 1.03 µM), the MIC ([4]; S. aureus 21B200, Clinical, MRSA, c-ermB) was 4 µg/mL (≈ 4.14 µM) and the MIC ([4]; S. aureus 21B207, Clinical, MRSA, c-ermB) was 2 µg/mL (≈ 2.07 µM). For the same compound, the MIC ([4]; S. aureus 21B212, Clinical, MSSA, i-ermC) was 0.25 µg/mL (≈ 0.258 µM), the MIC ([4]; S. aureus 21C173, Clinical, MSSA, i-ermC) was 0.25 µg/mL (≈ 0.258 µM) and the MIC ([4]; S. aureus 21C174, Clinical, MSSA, c-ermB) was 0.25 µg/mL (≈ 0.258 µM). It also gave an MIC ([4]; S. aureus 21C187, Clinical, MRSA, i-ermA) of 0.12 µg/mL (≈ 0.124 µM), an MIC ([4]; S. aureus 21D112, Clinical, MSSA, c-ermB) of 16 µg/mL (≈ 16.5 µM) and an MIC ([4]; S. aureus 21D115, Clinical, MSSA, i-ermC) of 0.25 µg/mL (≈ 0.258 µM). The MIC ([4]; S. aureus 21F198, Clinical, MRSA, c-ermB) was 1 µg/mL (≈ 1.03 µM), the MIC ([4]; S. aureus 21F206, Clinical, MSSA, c-ermB) was 8 µg/mL (≈ 8.27 µM) and the MIC ([4]; S. aureus 21F207, Clinical, MRSA, i-ermC) was 0.25 µg/mL (≈ 0.258 µM). The MIC ([4]; S. aureus 21K194, Clinical, MSSA, i-ermC) was 0.06 µg/mL (≈ 0.062 µM), the MIC ([4]; S. aureus 21N354, Clinical, MRSA, c-ermB) was 1 µg/mL (≈ 1.03 µM) and the MIC ([4]; S. aureus 21P191, Clinical, MSSA, c-ermC) was 16 µg/mL (≈ 16.5 µM). For the same compound, the MIC ([4]; S. aureus 21P404, Clinical, MSSA, i-ermC) was 0.25 µg/mL (≈ 0.258 µM), the MIC ([4]; S. aureus 21P407, Clinical, MRSA, c-ermB) was 8 µg/mL (≈ 8.27 µM) and the MIC ([4]; S. aureus 21Q253, Clinical, MRSA, c-ermB) was 1 µg/mL (≈ 1.03 µM). The MIC ([4]; S. aureus 21R216, Clinical, MSSA, c-ermC) was 16 µg/mL (≈ 16.5 µM), the MIC ([4]; S. aureus 21T141, Clinical, MRSA, c-ermB) was 1 µg/mL (≈ 1.03 µM) and the MIC ([4]; S. aureus 21X388, Clinical, i-ermA (MRSA in Table S9, MSSA in Fig. 2a)) was 0.06 µg/mL (≈ 0.062 µM). The MIC ([4]; S. aureus 21Y223, Clinical, MRSA, i-ermC) was 0.25 µg/mL (≈ 0.258 µM), the MIC ([4]; S. aureus ATCC29213) was 0.12 µg/mL (≈ 0.124 µM) and the MIC ([4]; S. aureus PU32, Clinical, MRSA, i-ermA) was 0.25 µg/mL (≈ 0.258 µM). It also gave an MIC50 [4, 10] of 1 µg/mL (≈ 1.03 µM), an MIC90 [4, 10] of 4 µg/mL (≈ 4.14 µM) and an MIC50 ([4]; Staphylococcus aureus, MSSA, MSSA (10)) of 0.25 µg/mL (≈ 0.258 µM). The MIC ([4]; Staphylococcus aureus, S. aureus 15B196, c-ermB, read-out: MIC) was 1 µg/mL (≈ 1.03 µM), the MIC ([4]; Staphylococcus aureus, S. aureus PU32, i-ermA, read-out: MIC) was 0.25 µg/mL (≈ 0.258 µM) and the MIC50 ([4]; Staphylococcus aureus, c-MLSB (constitutive) S. aureus (13)) was 2 µg/mL (≈ 2.07 µM). The MIC90 ([4]; Staphylococcus aureus, c-MLSB S. aureus (13)) was 16 µg/mL (≈ 16.5 µM), the MIC50 [4, 11] was 0.25 µg/mL (≈ 0.258 µM) and the MIC90 [4, 11] was 0.25 µg/mL (≈ 0.258 µM). The MIC90 ([4]; Staphylococcus aureus, MSSA (10)) was 16 µg/mL (≈ 16.5 µM), the MIC ([5]; S. pneumoniae 07P390, c-ermB, listed as 88g) was 0.06 µg/mL (≈ 0.062 µM) and the MIC ([5]; S. pneumoniae 21C315, Clinical, c-ermB) was 0.016 µg/mL (≈ 0.0165 µM). The MIC ([5]; S. pneumoniae 21D016, Clinical, c-ermB, mef) was 0.03 µg/mL (≈ 0.031 µM), the MIC ([5]; S. pneumoniae 21D020, Clinical, c-ermB, mef) was 0.03 µg/mL (≈ 0.031 µM) and the MIC ([5]; S. pneumoniae 21M277, Clinical, c-ermB) was 0.25 µg/mL (≈ 0.258 µM). The MIC ([5]; S. pneumoniae 21Q352, Clinical, i-MLSB) was no more than 0.002 µg/mL, the MIC ([5]; S. pneumoniae 21Q353, Clinical, i-MLSB) was no more than 0.002 µg/mL and the MIC ([5]; S. pneumoniae 21W257, Clinical, c-ermB, mef) was 0.016 µg/mL (≈ 0.0165 µM). It also gave an MIC ([5]; S. pneumoniae 21X435, Clinical) of no more than 0.002 µg/mL, an MIC ([5]; S. pneumoniae ATCC49619) of no more than 0.002 µg/mL and an MIC ([5]; Streptococcus pneumoniae, ATCC49619, S. pneumoniae ATCC49619, Ery-S, read-out: MIC) of no more than 0.008 µg/mL. The MIC ([5]; Streptococcus pneumoniae, S. pneumoniae 05O173, c-ermB, mef, read-out: MIC) was 2 µg/mL (≈ 2.07 µM), the MIC ([5]; Streptococcus pneumoniae, S. pneumoniae 07P390, c-ermB, read-out: MIC) was 0.03 µg/mL (≈ 0.031 µM) and the MIC ([5]; Streptococcus pneumoniae, S. pneumoniae PU09, mef, read-out: MIC) was no more than 0.008 µg/mL. For the same compound, the IC50 [6] was 720 ± 370 nM, the IC50 [7] was 570 ± 140 nM and the IC50 [8] was 1190 nM. The MIC [9] was 0.5 µg/mL (≈ 0.517 µM).

Reference: article PMC11239830, “Synthetic macrolides overcoming MLSBK-resistant pathogens” (Cell Discovery, 2024)
